According to patent US8524744B2, “Arylamine ketones, their preparation methods, the pharmaceutical composition containing them and their use” (Institute of Mataria Medica, Chinese Academy of Medical …, priority 2004, dated 2013):
Structures can show the parent of a compound that is named as a salt.

Tested on: TNF-α in serum
Assay: TNF-α in serum of rat with arthritis induced by type II collagen (ELISA)
Format: in vivo
Settings: Dose 100 mg · kg^−1 × 13 d, orally
Procedure: 0.1 ml of type II H collagen (2 mg·ml^−1) was intracutaneously injected into the hind foot of Wistar rat (male, 100±10 g) (d0). Seven days later 0.1 ml of type II collagen was intracutaneously injected into the root of tail. At 19th day (d19) the animals inflamed were selected to supply the experiment and randomly divided into two groups. […] The perimeter of the ankle joint of two hind feet, weight of body was measured and the systemic inflammation (including the toes of front and hind feet, ears and tails) was judged by scoring every 3 days. At 41th day 40 μl of 0.2% type II collagen was intracutaneously injected into the right ear. Twenty-four hr later the edema level was evaluated by weighing the ponderance of ear piece (diameter: 8 mm). At 42th day the blood was collected by decapitating. The serum was separated by centrifugating. The contents of antibody for anti-type II collagen, cytokine TNF-α, IL-1β in serum were determined by ELISA kit.

With CCOC(=O)C1CCN(CCC(=O)/C=C/c2ccc(Cl)cc2)CC1 [Compound 3, 5-[(4-Ethoxycarbonyl)piperidyl]-1-(4-chlorophenyl)-1-penten-3-one hydrochloride] the “inhibition (%) of production of TNF-α in serum” value was 49.3%.
